According to article PMC3341389, “Spiroindolines Identify the Vesicular Acetylcholine Transporter as a Novel Target for Insecticide Action” (PLoS ONE, 2012):
pKd: −log10 of the molar value.

How the values were obtained:
D. melanogaster VAChT [1] = biological target: T1, D. melanogaster VAChT (Drosophila melanogaster, UniProt O17444); assay: inhibition of vesicular acetylcholine uptake, PNS from PC12 cells expressing VAChT; type: biochemical; conditions: substrate acetylcholine
T1 construct: full-length gene cloned by PCR from adult fly cDNA library, Gateway vector, expressed in PC12 cells (rat)
T1 sequence (O17444 1-578): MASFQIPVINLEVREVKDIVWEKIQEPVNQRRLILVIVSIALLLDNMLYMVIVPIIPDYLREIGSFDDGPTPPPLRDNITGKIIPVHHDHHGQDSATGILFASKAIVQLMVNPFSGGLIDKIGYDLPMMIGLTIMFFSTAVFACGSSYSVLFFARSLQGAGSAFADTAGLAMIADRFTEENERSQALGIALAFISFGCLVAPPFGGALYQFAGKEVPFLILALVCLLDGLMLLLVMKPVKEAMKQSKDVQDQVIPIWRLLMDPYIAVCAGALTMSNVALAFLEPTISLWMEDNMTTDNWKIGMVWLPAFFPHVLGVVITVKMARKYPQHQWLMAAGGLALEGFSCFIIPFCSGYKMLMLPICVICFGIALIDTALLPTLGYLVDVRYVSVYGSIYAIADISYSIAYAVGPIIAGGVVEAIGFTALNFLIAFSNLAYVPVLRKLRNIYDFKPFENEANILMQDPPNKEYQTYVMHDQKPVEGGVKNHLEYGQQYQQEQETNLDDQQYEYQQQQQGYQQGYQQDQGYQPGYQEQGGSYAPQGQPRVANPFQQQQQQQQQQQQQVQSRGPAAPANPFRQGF

D. melanogaster VAChT [2] = biological target: T1, D. melanogaster VAChT; assay: [3H]-SYN876 saturation binding to membranes of PC12 cells expressing VAChT
D. melanogaster VAChT [3] = biological target: T1, D. melanogaster VAChT; assay: displacement of [3H]-SYN876 from membranes of PC12 cells expressing VAChT; type: binding; conditions: competition with [3H]-SYN876

SMILES | IC50 (D. melanogaster VAChT [1]) | pKd (D. melanogaster VAChT [2]) | IC50 (D. melanogaster VAChT [3])
O=C(c1ccnc(Cl)c1)N1CC2(CCN(C/C=C/c3ccc(Cl)cc3)CC2)c2cc(F)ccc21 [SYN876] | Inhibition of the acetylcholine transport activity of PNS from the cells | 10.40 | 
Nc1cccc2c1CC(N1CCC(c3ccccc3)CC1)C(O)C2 (stereo not shown) [aminobenzovesamicol] |  |  | displaced by the known VAChT inhibitors vesamicol and aminobenzovesamicol (table S3)
OC1CCCCC1N1CCC(c2ccccc2)CC1 (stereo not shown) [vesamicol] |  |  | displaced by the known VAChT inhibitors vesamicol and aminobenzovesamicol (table S3)
